In patent publication US10611774B2, “Salt form of DPPIV inhibitor and preparation method thereof” (SHANGHAI INSTITUTE OF MATERIA MEDICA, CHINESE ACADEMY OF …, priority 2016, dated 2020):
Each block holds one compound with its values, some of them ahead of it.

Columns and labels:
[1] = biological target: DPP IV (Homo sapiens, UniProt P27487); test: DPP IV inhibitory activity and selectivity in vitro; assay type: biochemical
[2] = biological target: T1, DPP IV (Mus musculus, UniProt P28843); test: Inhibition of DPP IV activity in normal mice plasma; assay type: in vivo
T1 construct: from tissue; host or cells: plasma of normal mice

[3] = biological target: T2, DPP IV (Rattus norvegicus, UniProt P14740); test: Inhibition of DPP IV activity in normal rat plasma; assay type: in vivo
T2 construct: from tissue; host or cells: plasma of normal rats

[4] = system: normal ICR mice; test: Oral glucose tolerance of normal ICR mice; assay type: in vivo
[5] = system: ob/ob mice; test: Fasting blood glucose of ob/ob mice, chronic administration; assay type: in vivo
[6] = system: db/db mice; test: Fasting blood glucose of gene-deficient db/db mice, chronic administration; assay type: in vivo
[7] = Pharmacokinetics in rats; assay type: in vivo
[8] = Pharmacokinetics in dogs; assay type: in vivo
[9] = system: ICR mice; test: Acute toxicity test of ICR mice; assay type: in vivo; conditions: 300 mg/kg administration group
[10] = system: rats; test: Subacute toxicity experiment of rats; assay type: in vivo; conditions: 150 mg/kg orally administrated group
[11] = Hygroscopicity analysis (DVS); assay type: physicochemical; conditions: for hygroscopicity (DVS): 25° C.; for water absorbed: at 80% RH; for humidity variation range: conventional storage humidity range
Method: Dynamic vapor absorption (DVS) test/water absorption test rapidly measures the increase and loss of the moisture in the sample caused by flow carrier gas with set relative humidity (RH), wherein the sample is placed on a digital microbalance with high sensitivity and high stability at a self-suspension state, and then the adsorption/desorption of water vapor is measured by measuring the increase/decrease of mass of the material, thereby determining the hygroscopicity of the sample.
In the present invention, the test parameters of the DVS are as follows: Instrument type: SMS DVS Intrinsic; Non-hydrate: 0 to 95%-0% RH; Temperature: 25° C.; Hydrate: 40 to 95%-0% RH; Temperature: 25° C.

[12] = versus sitagliptin and vildagliptin

Chain of DPP IV (Homo sapiens, UniProt P27487) (P27487 whole entry, species assumed): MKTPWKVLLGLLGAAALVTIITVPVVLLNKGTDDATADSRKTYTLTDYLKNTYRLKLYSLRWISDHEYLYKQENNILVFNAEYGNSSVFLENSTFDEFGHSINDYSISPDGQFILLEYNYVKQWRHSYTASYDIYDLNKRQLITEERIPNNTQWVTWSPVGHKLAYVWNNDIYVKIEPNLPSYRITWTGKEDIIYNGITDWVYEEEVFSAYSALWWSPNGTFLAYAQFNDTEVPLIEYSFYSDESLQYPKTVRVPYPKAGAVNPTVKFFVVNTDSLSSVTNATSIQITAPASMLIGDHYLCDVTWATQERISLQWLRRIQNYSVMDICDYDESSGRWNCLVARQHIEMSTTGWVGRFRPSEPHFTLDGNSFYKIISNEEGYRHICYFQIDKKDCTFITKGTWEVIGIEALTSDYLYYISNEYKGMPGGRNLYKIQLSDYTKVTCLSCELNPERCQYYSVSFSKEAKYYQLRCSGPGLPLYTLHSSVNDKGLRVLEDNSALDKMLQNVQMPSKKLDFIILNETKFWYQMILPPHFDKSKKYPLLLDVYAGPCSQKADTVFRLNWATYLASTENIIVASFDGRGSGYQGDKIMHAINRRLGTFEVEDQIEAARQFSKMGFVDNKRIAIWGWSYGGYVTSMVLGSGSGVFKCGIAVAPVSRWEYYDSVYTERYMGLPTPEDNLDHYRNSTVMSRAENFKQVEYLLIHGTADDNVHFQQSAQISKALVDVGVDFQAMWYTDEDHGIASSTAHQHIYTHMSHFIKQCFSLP
T2 sequence (P14740 37-767 limits assumed): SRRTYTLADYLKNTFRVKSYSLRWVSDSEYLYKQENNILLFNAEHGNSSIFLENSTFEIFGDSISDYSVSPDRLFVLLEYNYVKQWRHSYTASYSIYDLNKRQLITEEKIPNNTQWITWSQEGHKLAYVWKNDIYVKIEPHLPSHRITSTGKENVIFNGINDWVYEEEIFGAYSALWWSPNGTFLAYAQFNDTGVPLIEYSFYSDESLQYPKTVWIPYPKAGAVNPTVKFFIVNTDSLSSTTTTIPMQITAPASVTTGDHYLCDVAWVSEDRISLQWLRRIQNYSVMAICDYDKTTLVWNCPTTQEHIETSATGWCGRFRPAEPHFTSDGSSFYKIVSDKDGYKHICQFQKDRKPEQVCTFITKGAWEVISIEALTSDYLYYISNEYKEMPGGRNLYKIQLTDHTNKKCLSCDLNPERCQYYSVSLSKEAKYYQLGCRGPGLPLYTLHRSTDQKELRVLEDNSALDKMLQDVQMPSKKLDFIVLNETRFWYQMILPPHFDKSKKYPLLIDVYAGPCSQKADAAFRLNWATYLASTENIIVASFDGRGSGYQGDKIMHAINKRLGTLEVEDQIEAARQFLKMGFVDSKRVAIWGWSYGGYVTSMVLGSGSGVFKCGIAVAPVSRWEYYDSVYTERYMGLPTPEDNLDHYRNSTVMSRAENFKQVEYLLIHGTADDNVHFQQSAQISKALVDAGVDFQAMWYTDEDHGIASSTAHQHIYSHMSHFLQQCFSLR
T1 sequence (P28843 37-760 limits assumed): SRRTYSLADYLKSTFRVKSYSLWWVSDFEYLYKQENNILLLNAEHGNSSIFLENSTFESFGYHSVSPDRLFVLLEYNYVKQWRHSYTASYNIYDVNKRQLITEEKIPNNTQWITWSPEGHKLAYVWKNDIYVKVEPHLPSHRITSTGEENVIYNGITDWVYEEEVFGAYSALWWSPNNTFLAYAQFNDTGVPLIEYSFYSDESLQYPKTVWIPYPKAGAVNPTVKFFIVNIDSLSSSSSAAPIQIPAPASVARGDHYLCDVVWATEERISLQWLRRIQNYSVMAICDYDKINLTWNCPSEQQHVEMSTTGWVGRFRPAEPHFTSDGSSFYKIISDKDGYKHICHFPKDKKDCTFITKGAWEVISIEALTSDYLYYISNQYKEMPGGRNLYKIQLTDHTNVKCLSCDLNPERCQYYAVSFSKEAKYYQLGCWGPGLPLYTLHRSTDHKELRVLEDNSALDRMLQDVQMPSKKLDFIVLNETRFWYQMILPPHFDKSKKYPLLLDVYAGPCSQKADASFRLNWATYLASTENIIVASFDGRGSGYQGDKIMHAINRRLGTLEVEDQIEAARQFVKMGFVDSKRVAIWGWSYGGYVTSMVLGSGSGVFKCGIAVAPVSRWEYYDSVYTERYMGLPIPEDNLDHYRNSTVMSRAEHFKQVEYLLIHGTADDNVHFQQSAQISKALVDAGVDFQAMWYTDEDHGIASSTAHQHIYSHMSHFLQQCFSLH

Compound: COC(=O)c1cc2nc(N3CCC[C@@H](N)C3)n(Cc3ccccc3C#N)c(=O)c2s1 [compound of formula I, (R)-methyl-2-(3-aminopiperidin-1-yl)-3-(2-cyanobenzyl)-4-carbonyl-3,4-dihydrothiophene[3,2-d]pyrimidine-6-carboxylic acid]
DPP IV inhibitory activity ([1]; in vitro): up to nanomolar level | DPP IV inhibitory activity in vitro compared with marketed drugs [1, 12]: superior to the marketed drugs, sitagliptin and vildagliptin | selectivity in vitro compared with marketed drugs [1, 12]: superior to the marketed drugs, sitagliptin and vildagliptin | DPP IV inhibitory activity in animals compared with alogliptin [2]: superior to the marketed drug alogliptin | inhibition of DPP IV activity in plasma [2]: effective in inhibiting DPP IV activity | DPP IV inhibitory activity in animals compared with alogliptin [3]: superior to the marketed drug alogliptin | inhibition of DPP IV activity in plasma [3]: effective in inhibiting DPP IV activity | effect on oral glucose tolerance [4]: increase the oral glucose tolerance of normal ICR mice in a dose-dependent manner | onset dose, oral glucose tolerance [4]: 0.1 mg/kg | oral glucose tolerance effect compared with alogliptin [4]: better than alogliptin | effect on fasting blood glucose [5]: effectively decrease fasting blood glucose | fasting blood glucose effect compared with positive control alogliptin [5]: superior to the positive control drug alogliptin | effect on fasting blood glucose [6]: reduce its fasting blood glucose | fasting blood glucose effect compared with positive control alogliptin [6]: comparable to the positive control drug alogliptin | AUC0-t compared with alogliptin [7]: superior to those of the marketed drug alogliptin | half-life compared with alogliptin [7]: superior to those of the marketed drug alogliptin | AUC0-t compared with alogliptin [8]: superior to those of the marketed drug alogliptin | half-life compared with alogliptin [8]: superior to those of the marketed drug alogliptin | acute toxicity, animal death [9]: no animal died | subacute toxicity [10]: no obvious toxicity reaction

Compound: COC(=O)c1cc2nc(N3CCC[C@@H](N)C3)n(Cc3ccccc3C#N)c(=O)c2s1.Cl [hydrochloride, hydrochloride of (R)-methyl-2-(3-aminopiperidin-1-yl)-3-(2-cyanobenzyl)-4-carbonyl-3,4-dihydrothiophene [3,2-d] pyrimidine-6-carboxylic acid]
hygroscopicity (DVS) [11]: slightly hygroscopic | water absorbed [11]: 2.54% | humidity variation range [11]: less than 3.0%

Compound: COC(=O)c1cc2nc(N3CCC[C@@H](N)C3)n(Cc3ccccc3C#N)c(=O)c2s1.O=C(O)/C=C\C(=O)O [maleate, maleate of (R)-methyl-2-(3-aminopiperidin-1-yl)-3-(2-cyanobenzyl)-4-carbonyl-3,4-dihydrothiophene[3,2-d]pyrimidine-6-carboxylic acid]
hygroscopicity (DVS) [11]: slightly hygroscopicity | water absorbed [11]: 1.57% | humidity variation range [11]: less than 2.0%

Compound: COC(=O)c1cc2nc(N3CCC[C@@H](N)C3)n(Cc3ccccc3C#N)c(=O)c2s1.O=P(O)(O)O [phosphate, phosphate of (R)-methyl-2-(3-aminopiperidin-1-yl)-3-(2-cyanobenzyl)-4-carbonyl-3,4-dihydrothiophene[3,2-d]pyrimidine-6-carboxylic acid]
hygroscopicity (DVS) [11]: slightly hygroscopic | humidity variation range [11]: small

hygroscopicity (DVS) [11]: slightly hygroscopic | water absorbed [11]: 1.23% | humidity variation range [11]: less than 2.0%
Compound: glycolate of (R)-methyl-2-(3-aminopiperidin-1-yl)-3-(2-cyanobenzyl)-4-carbonyl-3,4-dihydrothiophene[3,2-d]pyrimidine-6-carboxylic acid
